Data: patent publication US8546414B2, “Ion channel modulators and methods of use” (Vertex Pharmaceuticals Incorporated, priority 2004, dated 2013)

Experiments:
Format in all cases: cell-based
NaV1.8 = NaV1.8 (Homo sapiens, UniProt Q9Y5Y9); assay: VIPR optical membrane potential assay, NaV1.8 (other subtypes in an analogous mode); conditions: Table 9, NaV 1.8 receptors
Procedure, shortened: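 Cells expressing the NaV subtype stained with coumarin and DiSBAC2(3) membrane-potential dyes, then incubated with test compound for 20-30 minutes. Depolarization evoked by sodium addback and read optically on VIPR; block measured as reduced membrane-potential response, with tetracaine as positive control.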

NaV1.3 = molecular target: T1, NaV1.3 (Homo sapiens, UniProt Q9NY46); assay: VIPR optical membrane potential assay with electrical stimulation, NaV1.3; conditions: Table 9, NaV 1.3 receptors
T1 construct: expressed in transfected cells; host or cells: HEK293
Procedure, shortened: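 HEK293 cells stably expressing NaV1.3, stained with CC2-DMPE (10 μM final) then DiSBAC2(3) with ABSC1, 30 min each at RT; compounds added with oxonol. Electrical stimulation for 3 s; 460/580 nm background-subtracted emission ratio Rf/Ri, normalised to tetracaine (positive) and untreated (negative) controls.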

CaV2.2 = molecular target: T2, CaV2.2 (Homo sapiens, UniProt Q00975); assay: VIPR optical membrane potential assay with electrical stimulation, CaV2.2; conditions: Table 9, CaV 2.2 receptors
T2 construct: expressed in transfected cells; host or cells: HEK293
Procedure, shortened: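 HEK293 cells stably expressing CaV2.2 stained with CC2-DMPE/DiSBAC2(3) voltage-sensitive dyes (10 μM final CC2-DMPE, 30 min, RT), then compound added and cells electrically stimulated for 3-5 s. Read-out: background-subtracted 460/580 nm emission ratio; response R=Rf/Ri (post- vs pre-stimulus ratio); antagonism seen as reduced response.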

T2 sequence (Q00975 whole entry): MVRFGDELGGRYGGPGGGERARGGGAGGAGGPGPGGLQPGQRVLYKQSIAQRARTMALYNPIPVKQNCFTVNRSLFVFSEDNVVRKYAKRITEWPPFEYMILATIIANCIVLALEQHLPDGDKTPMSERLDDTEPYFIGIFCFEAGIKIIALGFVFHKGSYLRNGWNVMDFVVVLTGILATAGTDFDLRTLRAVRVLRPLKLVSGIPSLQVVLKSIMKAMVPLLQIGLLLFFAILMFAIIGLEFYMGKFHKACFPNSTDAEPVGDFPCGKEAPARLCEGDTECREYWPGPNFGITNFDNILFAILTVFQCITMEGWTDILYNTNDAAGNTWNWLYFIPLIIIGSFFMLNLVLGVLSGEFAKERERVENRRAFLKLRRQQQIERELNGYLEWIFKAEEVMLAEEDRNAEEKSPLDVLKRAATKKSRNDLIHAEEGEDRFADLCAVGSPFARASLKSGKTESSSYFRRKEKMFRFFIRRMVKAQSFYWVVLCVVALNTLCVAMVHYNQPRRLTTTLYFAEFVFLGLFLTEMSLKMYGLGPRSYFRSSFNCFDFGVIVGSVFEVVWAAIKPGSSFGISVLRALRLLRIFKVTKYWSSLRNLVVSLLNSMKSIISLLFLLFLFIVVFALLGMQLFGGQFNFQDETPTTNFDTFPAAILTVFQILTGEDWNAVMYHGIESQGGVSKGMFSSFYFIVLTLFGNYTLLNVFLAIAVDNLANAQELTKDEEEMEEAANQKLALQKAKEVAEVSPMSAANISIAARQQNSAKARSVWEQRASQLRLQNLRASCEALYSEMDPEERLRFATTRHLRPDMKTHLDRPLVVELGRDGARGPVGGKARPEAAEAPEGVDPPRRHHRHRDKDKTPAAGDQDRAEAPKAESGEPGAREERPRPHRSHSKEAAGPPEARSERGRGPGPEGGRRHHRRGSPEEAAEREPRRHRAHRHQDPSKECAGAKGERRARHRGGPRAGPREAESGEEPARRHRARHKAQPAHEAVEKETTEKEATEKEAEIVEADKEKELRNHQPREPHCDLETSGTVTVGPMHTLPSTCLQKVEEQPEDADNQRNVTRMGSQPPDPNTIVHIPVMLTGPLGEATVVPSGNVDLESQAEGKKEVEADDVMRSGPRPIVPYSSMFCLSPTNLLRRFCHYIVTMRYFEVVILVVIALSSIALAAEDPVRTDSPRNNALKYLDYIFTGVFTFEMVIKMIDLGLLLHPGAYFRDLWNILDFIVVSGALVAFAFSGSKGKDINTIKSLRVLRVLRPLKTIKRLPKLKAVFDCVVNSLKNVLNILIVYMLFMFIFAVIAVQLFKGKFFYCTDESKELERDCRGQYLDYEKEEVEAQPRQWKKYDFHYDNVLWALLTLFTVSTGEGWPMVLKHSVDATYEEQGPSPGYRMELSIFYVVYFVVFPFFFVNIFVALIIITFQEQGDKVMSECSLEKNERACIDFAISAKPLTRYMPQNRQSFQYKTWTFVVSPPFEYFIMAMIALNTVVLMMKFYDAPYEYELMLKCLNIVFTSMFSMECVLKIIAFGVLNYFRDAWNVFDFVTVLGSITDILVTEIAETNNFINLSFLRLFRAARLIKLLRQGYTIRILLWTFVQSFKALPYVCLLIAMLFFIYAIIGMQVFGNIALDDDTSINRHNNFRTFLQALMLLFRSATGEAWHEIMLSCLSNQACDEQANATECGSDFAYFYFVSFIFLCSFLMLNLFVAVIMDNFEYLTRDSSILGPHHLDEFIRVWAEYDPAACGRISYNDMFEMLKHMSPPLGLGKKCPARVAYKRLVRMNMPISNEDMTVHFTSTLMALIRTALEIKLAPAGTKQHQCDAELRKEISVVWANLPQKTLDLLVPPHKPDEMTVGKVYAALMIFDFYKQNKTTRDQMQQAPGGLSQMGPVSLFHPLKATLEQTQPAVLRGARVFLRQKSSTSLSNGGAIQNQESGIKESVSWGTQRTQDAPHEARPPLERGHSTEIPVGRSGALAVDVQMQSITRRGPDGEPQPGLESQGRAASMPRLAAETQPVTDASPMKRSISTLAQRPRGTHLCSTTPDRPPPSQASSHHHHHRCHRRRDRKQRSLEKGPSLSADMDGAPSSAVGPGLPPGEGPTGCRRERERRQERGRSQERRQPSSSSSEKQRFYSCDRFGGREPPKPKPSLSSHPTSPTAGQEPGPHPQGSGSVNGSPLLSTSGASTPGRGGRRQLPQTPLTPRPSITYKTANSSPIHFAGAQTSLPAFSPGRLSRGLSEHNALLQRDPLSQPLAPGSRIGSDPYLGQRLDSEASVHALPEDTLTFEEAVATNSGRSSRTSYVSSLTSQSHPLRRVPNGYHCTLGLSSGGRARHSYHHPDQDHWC
T2 sequence (P54284 whole entry partner): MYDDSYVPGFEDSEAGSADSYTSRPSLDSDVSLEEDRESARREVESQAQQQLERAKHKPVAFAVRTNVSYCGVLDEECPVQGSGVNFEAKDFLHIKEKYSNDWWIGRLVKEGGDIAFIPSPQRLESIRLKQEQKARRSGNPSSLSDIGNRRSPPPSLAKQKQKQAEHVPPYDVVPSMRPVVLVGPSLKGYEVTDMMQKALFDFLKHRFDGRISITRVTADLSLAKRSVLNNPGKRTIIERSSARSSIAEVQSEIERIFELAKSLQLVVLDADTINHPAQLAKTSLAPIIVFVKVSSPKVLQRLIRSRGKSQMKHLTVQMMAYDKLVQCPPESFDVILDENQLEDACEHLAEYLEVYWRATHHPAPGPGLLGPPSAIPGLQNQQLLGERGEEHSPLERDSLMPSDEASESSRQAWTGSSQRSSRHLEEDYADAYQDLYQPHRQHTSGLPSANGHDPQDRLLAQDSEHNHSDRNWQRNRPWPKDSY
T2 sequence (P54289 25-956 partner limits assumed): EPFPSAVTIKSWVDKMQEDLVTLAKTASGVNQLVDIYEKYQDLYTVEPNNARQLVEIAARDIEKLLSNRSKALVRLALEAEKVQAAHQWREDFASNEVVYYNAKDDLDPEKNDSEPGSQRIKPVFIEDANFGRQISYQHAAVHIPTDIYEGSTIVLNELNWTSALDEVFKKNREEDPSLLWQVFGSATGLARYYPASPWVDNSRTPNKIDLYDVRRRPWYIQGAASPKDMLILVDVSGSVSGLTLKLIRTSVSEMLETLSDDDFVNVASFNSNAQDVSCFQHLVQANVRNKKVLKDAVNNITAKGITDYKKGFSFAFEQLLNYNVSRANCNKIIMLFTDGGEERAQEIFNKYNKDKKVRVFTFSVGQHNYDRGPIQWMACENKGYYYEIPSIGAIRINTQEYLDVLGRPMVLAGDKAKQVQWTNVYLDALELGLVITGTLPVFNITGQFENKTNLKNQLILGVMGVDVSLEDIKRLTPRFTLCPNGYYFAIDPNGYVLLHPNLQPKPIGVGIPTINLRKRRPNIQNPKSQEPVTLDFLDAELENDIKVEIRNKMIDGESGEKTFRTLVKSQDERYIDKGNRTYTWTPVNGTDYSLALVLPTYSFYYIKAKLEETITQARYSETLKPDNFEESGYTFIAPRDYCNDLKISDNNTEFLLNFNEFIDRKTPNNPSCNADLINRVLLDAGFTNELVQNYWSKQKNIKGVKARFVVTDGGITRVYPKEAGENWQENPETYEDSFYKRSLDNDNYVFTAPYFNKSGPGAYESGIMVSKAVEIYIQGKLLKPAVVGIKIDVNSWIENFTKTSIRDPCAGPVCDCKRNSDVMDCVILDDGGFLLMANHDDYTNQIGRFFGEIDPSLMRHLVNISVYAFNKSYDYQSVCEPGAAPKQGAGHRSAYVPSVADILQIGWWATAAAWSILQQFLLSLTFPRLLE
T2 sequence (P54289 957-1103 partner limits assumed): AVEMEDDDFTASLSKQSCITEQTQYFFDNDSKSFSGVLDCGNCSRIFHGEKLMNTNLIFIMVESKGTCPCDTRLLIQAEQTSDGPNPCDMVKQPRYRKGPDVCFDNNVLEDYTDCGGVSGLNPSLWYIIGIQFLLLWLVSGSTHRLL

| IC50 (NaV1.8) [µM] | IC50 (NaV1.3) [µM] | IC50 (CaV2.2) [µM] | SMILES |
| --- | --- | --- | --- |
| > 10 | 2 to 10 | 2 to 10 | CC(C)N(C(=O)c1cnc(N2CCC3CCCCC3C2)nc1-c1ccccc1F)c1ccccc1 (stereo not drawn) [compound 105] |
| > 10 | > 10 | > 10 | CC(C)N(Cc1ccccc1)C(=O)c1cnc(Nc2nc3ccccc3[nH]2)nc1-c1ccccc1F [compound 106] |
| > 10 | > 10 | > 10 | O=C(c1cnc(N2CCOCC2)nc1-c1ccccc1F)N1CCc2ccccc2C1 [compound 107] |
| > 10 | 2 to 10 | < 2 | COc1ccc(N(C(=O)c2cnc(N3CCCCC3)nc2-c2ccccc2F)C(C)C)cc1 [compound 108] |
| > 10 | 2 to 10 | 2 to 10 | O=C(c1cnc(N2CCSCC2)nc1-c1ccccc1F)N(Cc1ccccc1)C1CC1 [compound 109] |
| > 10 | > 10 | 2 to 10 | O=C(c1cnc(N2CCOCC2)nc1-c1ccccc1F)N(Cc1cccc(F)c1)C1CC1 [compound 110] |
| > 10 | > 10 | > 10 | CC(C)N(C(=O)c1cnc(N2CCOCC2)nc1-c1ccccc1F)c1cccc(N(C)C)c1 [compound 111] |
| > 10 | 2 to 10 | > 10 | CCC(COC)N(Cc1ccccc1)C(=O)c1cnc(N2CCOCC2)nc1-c1ccccc1F (stereo not drawn) [compound 113] |
| > 10 | > 10 | < 2 | O=C(c1cnc(N2CCC3CCCCC3C2)nc1-c1ccccc1F)N(Cc1cccc(-c2ccncc2)c1)C1CC1 (stereo not drawn) [compound 114] |
| > 10 | > 10 | 2 to 10 | COc1cccc(N(C(=O)c2cnc(N3CCCCC3)nc2-c2ccccc2Cl)C2CCCCC2)c1 [compound 115] |
| > 10 | 2 to 10 | 2 to 10 | COc1cccc(N(C(=O)c2cnc(N3CCCCC3)nc2-c2ccccc2F)C2CCC2)c1 [compound 116] |
| 2 to 10 | 2 to 10 | < 2 | CC(C)N(Cc1ccccc1)C(=O)c1cnc(N2CCCCC2)nc1-c1ccccc1F [compound 117] |
| > 10 | 2 to 10 | < 2 | CC(C)N(Cc1ccccc1)C(=O)c1cnc(NCCc2ccc(F)cc2)nc1-c1ccccc1F [compound 118] |
| > 10 | 2 to 10 | < 2 | CC(C)N(Cc1ccc2c(c1)OCO2)C(=O)c1cnc(N2CCC3CCCCC3C2)nc1-c1ccccc1F (stereo not drawn) [compound 120] |
| > 10 | 2 to 10 | 2 to 10 | O=C(NCCOc1ccccc1)c1cnc(N2CCOCC2)nc1-c1ccc(Oc2ccccc2)cc1 [compound 121] |
| > 10 | > 10 | 2 to 10 | CC(C)N(Cc1ccc(C(C)(C)C)cc1)C(=O)c1cnc(N2CCCCC2)nc1-c1ccccc1F [compound 122] |
| > 10 | > 10 | 2 to 10 | CC(C)N(Cc1ccccc1)C(=O)c1cnc(N2CCOCC2)nc1-c1ccc(Oc2ccccc2)cc1 [compound 123] |
| > 10 | 2 to 10 | 2 to 10 | O=C(c1cnc(N2CCOCC2)nc1-c1ccccc1F)N(Cc1ccc(C(F)(F)F)cc1)C1CC1 [compound 124] |
| > 10 | > 10 | 2 to 10 | CC(C)N(C(=O)c1cnc(N2CCCCC2)nc1-c1ccccc1F)c1cccc(C#N)c1 [compound 125] |
| > 10 | > 10 | 2 to 10 | CN1CCN(c2ncc(C(=O)N(Cc3ccc(C(F)(F)F)cc3)C3CC3)c(-c3ccccc3F)n2)CC1 [compound 126] |

| SMILES | IC50 (NaV1.8) [µM] | IC50 (NaV1.3) [µM] | IC50 (CaV2.2) [µM] |
| --- | --- | --- | --- |
| CC(C)N(C(=O)c1cnc(N2CCCCC2)nc1-c1ccccc1F)c1cccc2ccccc12 [compound 112] | > 10 | 2 to 10 | > 10 |
| CC(C)N(Cc1ccc(C(C)(C)C)cc1)C(=O)c1cnc(N2CCCCC2)nc1-c1ccccc1Cl [compound 119] | > 10 | > 10 | 2 to 10 |
